Assay results reported in patent US20110086899A1, “PHARMACEUTICAL COMPOSITIONS FOR ORAL ADMINISTRATION” (XENON PHARMACEUTICALS INC., priority 2009, published 2011).
pIC50: −log10 of the molar value. “Also recorded” adds a separate entry of the source.

Experiments:
[1] = solubility in excipients and excipient combinations; type: physicochemical
Method: Determination of the solubility of a spiro-oxindole compound of the invention, as a racemate, a single enantiomer, or a non-racemic mixture of enantiomers, or a pharmaceutically acceptable salt thereof, in each of the above excipients was carried out by weighing a specified quantity of the excipient into a scintillation vial and then adding a weighed quantity of the spiro-oxindole compound of the invention, as a racemate, a single enantiomer, or a non-racemic mixture of enantiomers, or a pharmaceutically acceptable salt thereof. Heating and vortexing was then applied as required to dissolve the spiro-oxindole compound of the invention, as a racemate, a single enantiomer, or a non-racemic mixture of enantiomers, or a pharmaceutically acceptable salt thereof. If the initial quantity of the spiro-oxindole compound of the invention, as a racemate, a single enantiomer, or a non-racemic mixture of enantiomers, or a pharmaceutically acceptable salt thereof, dissolved, then an additional amount of the spiro-oxindole compound of the invention, as a racemate, a single enantiomer, or a non-racemic mixture of enantiomers, or a pharmaceutically acceptable salt thereof, was added to determine the maximum solubility.
The rationale for preparing each combination is given as well: […]

sodium channel = assay: guanidine influx assay (WO 06/110917, BIOLOGICAL EXAMPLE 1); type: cell-based; settings: inhibition of ion flux through a sodium channel
Method: Typically, a successful therapeutic effective amount of an pharmaceutical composition of the invention for oral administration to a mammal, in need thereof, will meet some or all of the following criteria. Animal model efficacy of a spiro-oxindole compound of the invention, as a racemate, a single enantiomer, or a non-racemic mixture of enantiomers, or a pharmaceutically acceptable salt thereof, should be less than about 0.1 μg/Kg to about 100 mg/Kg body weight and the target human dose of a spiro-oxindole compound of the invention, as a racemate, a single enantiomer, or a non-racemic mixture of enantiomers, or a pharmaceutically acceptable salt thereof, should be between 0.1 μg/Kg to about 100 mg/Kg body weight, although doses outside of this range may be acceptable (“mg/Kg” means milligrams of compound per kilogram of body mass of the subject to whom it is being administered). The therapeutic index (or ratio of toxic dose to therapeutic dose) of a spiro-oxindole compound of the invention, as a racemate, a single enantiomer, or a non-racemic mixture of enantiomers, or a pharmaceutically acceptable salt thereof, should be greater than 100. […]

[2] = in vivo pharmacokinetic profile after oral administration to dogs; parameters: species or system male beagle dogs; settings: fasted dogs
Method: The in vivo pharmacokinetic profiles of the pharmaceutical compositions of the invention were determined as follows. Pharmaceutical compositions of the invention were orally administered to dogs in a controlled experiment to determine pharmacokinetic profile of a spiro-oxindole compound of the invention in a pharmaceutical composition of the invention.
Non-naïve male beagle dogs (Marshall Farms USA, Inc.) ranging in body weights from 6-10 Kg were used for the study. Each dog was fasted overnight before dosing. The fasted dogs (n=3/group) were given a single dose of 100 mg capsule (as setout in Table 4 above) or 400 mg (4×100 mg capsule) by oral administration (PO). Food was returned 4-hours post-dose. Blood samples were collected via jugular venipuncture at various timepoints ([…], 1, 2, 4, 6, 8, 24 and 48 hrs) after administration and plasma concentration was determined by liquid chromatography mass spectroscopy (LC-MS/MS). Concentrations of the active ingredient in the plasma samples at each timepoint were determined using standard methods known to one skilled in the art. The active ingredient concentrations were plotted against time (time in hours versus concentration in ng/mL) and the area under the curve extrapolated to infinity (AUCinf), the Cmax (peak plasma concentration of the active ingredient) and Tmax (time after administration of the pharmaceutical composition when peak plasma concentration level occurs) were calculated.

[3] = target: Nav1.7 voltage-gated sodium channel (Homo sapiens, UniProt Q15858); assay: inhibition of Nav1.7
[4] = system: pain following extraction of impacted third molar teeth; assay: clinical trial for treatment of dental pain; type: in vivo, human; settings: single 500 mg oral dose of composition comprising COMPOUND B
Method: The purpose of this clinical trial was to compare the safety and efficacy (onset, duration of relief, and overall efficacy) of a single 500 mg dose of a pharmaceutical composition of the invention comprising COMPOUND B versus a placebo dose for relief of pain following extraction of impacted third molar teeth. Sixty-one subjects were enrolled in the study. The mean age for the subjects was 20.4 years, and all subjects were male. The majority of subjects were Caucasians (95.1%). The severity and relief of the pain was measured using an 11-point Pain Intensity Numerical Rating Scale (graded from 0=no pain at all to 10=worst pain imaginable) (PINRS) and a 5-point Categorical Pain Relief Scale (REL). Subjects completed the PINRS after surgery, but before the administration of (S)-enantiomer of the invention. Efficacy variables were derived from the REL and PINRS scores and included total pain relief (TOTPAR), pain intensity difference (PID), and summed pain intensity difference (SPID) and evaluated at time points of 4, 6, 8, and 12 hours after administration of the pharmaceutical composition of the invention comprising COMPOUND B.

Sequence of Nav1.7 voltage-gated sodium channel (Q15858 whole entry): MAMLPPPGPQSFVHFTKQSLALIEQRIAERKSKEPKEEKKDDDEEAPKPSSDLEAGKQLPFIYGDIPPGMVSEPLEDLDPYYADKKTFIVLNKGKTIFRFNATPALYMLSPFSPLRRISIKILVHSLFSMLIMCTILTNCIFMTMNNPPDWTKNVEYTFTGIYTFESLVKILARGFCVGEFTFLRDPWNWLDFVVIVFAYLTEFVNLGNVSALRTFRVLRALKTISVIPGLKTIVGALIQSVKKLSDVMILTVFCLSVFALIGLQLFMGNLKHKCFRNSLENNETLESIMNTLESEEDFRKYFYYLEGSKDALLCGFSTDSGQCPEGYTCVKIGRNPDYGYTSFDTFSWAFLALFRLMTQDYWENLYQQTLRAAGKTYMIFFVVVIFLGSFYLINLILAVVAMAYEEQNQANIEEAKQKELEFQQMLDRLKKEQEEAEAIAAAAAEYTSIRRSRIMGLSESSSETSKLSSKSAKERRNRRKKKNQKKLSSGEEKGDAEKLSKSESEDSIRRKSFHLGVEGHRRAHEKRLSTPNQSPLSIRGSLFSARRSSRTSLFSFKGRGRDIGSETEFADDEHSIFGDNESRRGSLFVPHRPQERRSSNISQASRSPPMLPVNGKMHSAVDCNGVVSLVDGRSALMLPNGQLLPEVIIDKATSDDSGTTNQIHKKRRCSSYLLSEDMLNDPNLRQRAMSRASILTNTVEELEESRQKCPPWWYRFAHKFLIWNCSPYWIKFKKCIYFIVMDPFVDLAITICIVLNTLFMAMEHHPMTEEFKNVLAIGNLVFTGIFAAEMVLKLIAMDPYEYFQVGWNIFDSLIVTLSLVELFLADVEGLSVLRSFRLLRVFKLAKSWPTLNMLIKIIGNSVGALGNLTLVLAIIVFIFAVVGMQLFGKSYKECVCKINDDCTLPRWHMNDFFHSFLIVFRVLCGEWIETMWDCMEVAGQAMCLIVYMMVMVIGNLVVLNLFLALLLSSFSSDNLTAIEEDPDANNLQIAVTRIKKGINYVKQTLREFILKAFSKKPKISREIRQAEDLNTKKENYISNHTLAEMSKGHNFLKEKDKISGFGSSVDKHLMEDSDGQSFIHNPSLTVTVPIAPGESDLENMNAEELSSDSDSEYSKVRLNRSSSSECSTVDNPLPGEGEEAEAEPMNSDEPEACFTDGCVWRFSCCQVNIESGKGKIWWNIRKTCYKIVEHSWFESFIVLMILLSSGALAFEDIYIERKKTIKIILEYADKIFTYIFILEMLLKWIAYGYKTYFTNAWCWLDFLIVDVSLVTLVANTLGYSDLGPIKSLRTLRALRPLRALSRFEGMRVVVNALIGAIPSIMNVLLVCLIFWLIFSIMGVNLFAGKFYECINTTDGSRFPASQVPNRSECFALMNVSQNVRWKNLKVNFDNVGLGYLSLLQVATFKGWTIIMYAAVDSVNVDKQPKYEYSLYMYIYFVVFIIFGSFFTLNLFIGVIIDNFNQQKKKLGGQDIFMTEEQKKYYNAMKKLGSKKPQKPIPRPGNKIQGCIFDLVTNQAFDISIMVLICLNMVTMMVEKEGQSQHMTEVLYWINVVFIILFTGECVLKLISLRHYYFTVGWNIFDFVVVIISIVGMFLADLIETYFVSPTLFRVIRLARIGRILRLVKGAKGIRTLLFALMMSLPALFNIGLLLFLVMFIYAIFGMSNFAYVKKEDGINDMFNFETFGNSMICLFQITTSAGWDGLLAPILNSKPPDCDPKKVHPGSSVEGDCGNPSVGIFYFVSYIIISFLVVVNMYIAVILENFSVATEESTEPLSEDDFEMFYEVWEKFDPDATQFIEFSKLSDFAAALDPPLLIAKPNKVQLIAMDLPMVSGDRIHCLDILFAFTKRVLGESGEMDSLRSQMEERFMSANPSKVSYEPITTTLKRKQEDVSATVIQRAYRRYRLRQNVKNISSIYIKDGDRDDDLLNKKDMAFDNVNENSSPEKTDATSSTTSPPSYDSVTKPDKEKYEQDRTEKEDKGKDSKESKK

Compound | solubility in Labrafac ([1]; excipient Labrafac) | solubility in Labrasol ([1]; excipient Labrasol) | solubility in PEG 400 ([1]; excipient PEG 400) | solution in the excipient combinations of Table 2 ([1]; upon mixing and heating to 70-80° C.) | pIC50 (sodium channel) | absorption following PO administration ([2]; single PO dose 100 mg or 400 mg) | Tmax ([2]; male, beagle, dog, plasma, single PO dose 100 mg capsule (Table 4) or 400 mg (4×100 mg capsule)) [h] | Cmax ([2]; male, beagle, dog, single PO dose 100 mg capsule (Table 4) or 400 mg (4×100 mg capsule), plasma) [ng/mL] | inhibition of Nav1.7 [3] | solubility in caprylic/capric glycerides such as Imwitor 742 ([1]; excipient Imwitor 742, compared with other excipients) | onset of action [4] | pain relief compared to placebo [4] | statistical significance from the placebo [4] | primary and all secondary endpoints (TOTPAR, PID, SPID) versus placebo ([4]; 4, 6, 8 and 12 hours)
O=C1N(Cc2ccc(C(F)(F)F)o2)c2ccccc2C12COc1cc3c(cc12)OCO3 (racemic) [COMPOUND A, 1′-{[5-(trifluoromethyl)-2-furyl]methyl}spiro[furo[2,3-f][1,3]benzodioxole-7,3′-indol]-2′(1′H)-one] | readily soluble in Labrafac ®. The | best excipient; also recorded: soluble in Labrasol ®, the excipient | readily soluble in PEG 400. PEG | suitable for producing a solution | > 6.00 | – | – | – | – | – | – | – | – | –
O=C1N(Cc2ccc(C(F)(F)F)o2)c2ccccc2[C@]12COc1cc3c(cc12)OCO3 [COMPOUND B, (S)-1′-{[5-(trifluoromethyl)-2-furyl]methyl}spiro[furo[2,3-f][1,3]benzodioxole-7,3′-indol]-2′(1′-H)-one] | – | – | – | – | – | readily absorbed | 1 to 3 | 1300 to 1600 | has been shown to inhibit | less than other excipients | slow onset of action | higher | not achieved | consistent analgesic trend
